Species on record: Rattus norvegicus
Assay: DrugMatrix - Regimen: Daily Repeat
Assay type: toxicity, organism-based, Sprague-Dawley
Set-up: regimen Daily Repeat, gender Male, age 6-8 weeks
Conditions: in vivo, po, route oral GAVAGE, vehicle 100 % WATER; for ABSOLUTE BASOPHIL / ABSOLUTE EOSINOPHIL / ABSOLUTE LYMPHOCYTE / ABSOLUTE MONOCYTE / ABSOLUTE SEGMENTED NEUTROPHIL / BASOPHIL / EOSINOPHIL / ERYTHROCYTE COUNT / HEMATOCRIT / HEMOGLOBIN / LEUKOCYTE COUNT / LYMPHOCYTE / MEAN CORPUSCULAR HEMOGLOBIN / MEAN CORPUSCULAR HEMOGLOBIN CONCENTRATION / MEAN CORPUSCULAR VOLUME / MONOCYTE / NEUTROPHIL / NUCLEATED RED BLOOD CELLS / PLATELET COUNT: tissue Blood; for ALANINE AMINOTRANSFERASE / ALBUMIN / ALKALINE PHOSPHATASE / ASPARTATE AMINOTRANSFERASE / BLOOD UREA NITROGEN / CARBON DIOXIDE / CHLORIDE / CHOLESTEROL / CREATINE PHOSPHOKINASE / CREATININE / GLUCOSE / LACTATE DEHYDROGENASE / LIPASE / PHOSPHORUS / POTASSIUM / SODIUM / TOTAL BILIRUBIN / TOTAL PROTEIN / URIC ACID: tissue Plasma
[1] = 0 mg/kg, 72 h, dose level Control, time 3 day
[2] = 0 mg/kg, 120 h, dose level Control, time 5 day
[3] = 120 mg/kg, 72 h, dose level Low, time 3 day

Nc1ccc(S(=O)(=O)Nc2ccnn2-c2ccccc2)cc1 [SULFAPHENAZOLE]
ABSOLUTE BASOPHIL [1]: 0 CELLS/uL
ABSOLUTE EOSINOPHIL [1]: 20.17 CELLS/uL
ABSOLUTE LYMPHOCYTE [1]: 12371.67 CELLS/uL
ABSOLUTE MONOCYTE [1]: 166 CELLS/uL
ABSOLUTE SEGMENTED NEUTROPHIL [1]: 1292.17 CELLS/uL
BASOPHIL [1]: 0%
EOSINOPHIL [1]: 0.17%
ERYTHROCYTE COUNT [1]: 5.46 x10E6/uL
HEMATOCRIT [1]: 34.38%
HEMOGLOBIN [1]: 13.32 G/DL
LEUKOCYTE COUNT [1]: 13.85 x10E3/uL
LYMPHOCYTE [1]: 88.5%
MEAN CORPUSCULAR HEMOGLOBIN [1]: 24.42 pg
MEAN CORPUSCULAR HEMOGLOBIN CONCENTRATION [1]: 38.7 G/DL
MEAN CORPUSCULAR VOLUME [1]: 63.07 fL
MONOCYTE [1]: 1.17%
NEUTROPHIL [1]: 10.17%
NUCLEATED RED BLOOD CELLS [1]: 0.17 /100WBC
PLATELET COUNT [1]: 1193.5 x10E3/uL
ALANINE AMINOTRANSFERASE [1]: 54.5 u/L
ALBUMIN [1]: 4.02 G/DL
ALKALINE PHOSPHATASE [1]: 346.5 u/L
ASPARTATE AMINOTRANSFERASE [1]: 103.17 u/L
BLOOD UREA NITROGEN [1]: 16.5 mg/dL
CARBON DIOXIDE [1]: 29.83 mmol/L
CHLORIDE [1]: 99.5 MEQ/L
CHOLESTEROL [1]: 72.5 mg/dL
CREATINE PHOSPHOKINASE [1]: 532.5 u/L
CREATININE [1]: 0.18 mg/dL
GLUCOSE [1]: 168.5 mg/dL
LACTATE DEHYDROGENASE [1]: 536.5 u/L
LIPASE [1]: 11.17 u/L
PHOSPHORUS [1]: 11.48 mg/dL
POTASSIUM [1]: 5.95 MEQ/L
SODIUM [1]: 140.5 MEQ/L
TOTAL BILIRUBIN [1]: 0.18 mg/dL
TOTAL PROTEIN [1]: 5.77 G/DL
URIC ACID [1]: 1.42 mg/dL
ABSOLUTE BASOPHIL [2]: 0 CELLS/uL
ABSOLUTE EOSINOPHIL [2]: 22.83 CELLS/uL
ABSOLUTE LYMPHOCYTE [2]: 12202.83 CELLS/uL
ABSOLUTE MONOCYTE [2]: 158 CELLS/uL
ABSOLUTE SEGMENTED NEUTROPHIL [2]: 1283 CELLS/uL
BASOPHIL [2]: 0%
EOSINOPHIL [2]: 0.17%
ERYTHROCYTE COUNT [2]: 5.88 x10E6/uL
HEMATOCRIT [2]: 36.62%
HEMOGLOBIN [2]: 14.07 G/DL
LEUKOCYTE COUNT [2]: 13.67 x10E3/uL
LYMPHOCYTE [2]: 89.5%
MEAN CORPUSCULAR HEMOGLOBIN [2]: 23.95 pg
MEAN CORPUSCULAR HEMOGLOBIN CONCENTRATION [2]: 38.43 G/DL
MEAN CORPUSCULAR VOLUME [2]: 62.28 fL
MONOCYTE [2]: 1.17%
NEUTROPHIL [2]: 9.17%
NUCLEATED RED BLOOD CELLS [2]: 0.17 /100WBC
PLATELET COUNT [2]: 1198 x10E3/uL
ALANINE AMINOTRANSFERASE [2]: 51 u/L
ALBUMIN [2]: 4.3 G/DL
ALKALINE PHOSPHATASE [2]: 343 u/L
ASPARTATE AMINOTRANSFERASE [2]: 89.83 u/L
BLOOD UREA NITROGEN [2]: 17.67 mg/dL
CARBON DIOXIDE [2]: 27.17 mmol/L
CHLORIDE [2]: 98.33 MEQ/L
CHOLESTEROL [2]: 82.5 mg/dL
CREATINE PHOSPHOKINASE [2]: 533.33 u/L
CREATININE [2]: 0.18 mg/dL
GLUCOSE [2]: 152.67 mg/dL
LACTATE DEHYDROGENASE [2]: 220.33 u/L
LIPASE [2]: 11.5 u/L
PHOSPHORUS [2]: 11.25 mg/dL
POTASSIUM [2]: 6.29 MEQ/L
SODIUM [2]: 140.53 MEQ/L
TOTAL BILIRUBIN [2]: 0.22 mg/dL
TOTAL PROTEIN [2]: 6.12 G/DL
URIC ACID [2]: 1.42 mg/dL
ABSOLUTE BASOPHIL [3]: 0 CELLS/uL
ABSOLUTE EOSINOPHIL [3]: 0 CELLS/uL
ABSOLUTE LYMPHOCYTE [3]: 13809.67 CELLS/uL
ABSOLUTE MONOCYTE [3]: 111 CELLS/uL
ABSOLUTE SEGMENTED NEUTROPHIL [3]: 1579.33 CELLS/uL
BASOPHIL [3]: 0%
EOSINOPHIL [3]: 0%
ERYTHROCYTE COUNT [3]: 5.26 x10E6/uL
HEMATOCRIT [3]: 32.3%
HEMOGLOBIN [3]: 13 G/DL
LEUKOCYTE COUNT [3]: 15.5 x10E3/uL
LYMPHOCYTE [3]: 88.67%
MEAN CORPUSCULAR HEMOGLOBIN [3]: 24.77 pg
MEAN CORPUSCULAR HEMOGLOBIN CONCENTRATION [3]: 40.33 G/DL
MEAN CORPUSCULAR VOLUME [3]: 61.43 fL
MONOCYTE [3]: 0.67%
NEUTROPHIL [3]: 10.67%
NUCLEATED RED BLOOD CELLS [3]: 0 /100WBC
PLATELET COUNT [3]: 1150 x10E3/uL
ALANINE AMINOTRANSFERASE [3]: 66 u/L
ALBUMIN [3]: 3.9 G/DL
ALKALINE PHOSPHATASE [3]: 348.67 u/L
ASPARTATE AMINOTRANSFERASE [3]: 94.33 u/L
BLOOD UREA NITROGEN [3]: 14 mg/dL
CARBON DIOXIDE [3]: 29.33 mmol/L
CHLORIDE [3]: 97.67 MEQ/L
CHOLESTEROL [3]: 74.67 mg/dL
CREATINE PHOSPHOKINASE [3]: 287.67 u/L
CREATININE [3]: 0.15 mg/dL
GLUCOSE [3]: 149.33 mg/dL
LACTATE DEHYDROGENASE [3]: 195.67 u/L
LIPASE [3]: 10 u/L
PHOSPHORUS [3]: 11.53 mg/dL
POTASSIUM [3]: 6.01 MEQ/L
SODIUM [3]: 140.83 MEQ/L
TOTAL BILIRUBIN [3]: 0.17 mg/dL
TOTAL PROTEIN [3]: 5.63 G/DL
URIC ACID [3]: 1.33 mg/dL

Reference: ChEMBL document CHEMBL3885881, “DrugMatrix”
